# Results from US20240294517A1, “2-[3-[1 [(QUINAZOLIN-4-YL)AMINO]ETHYL]PYRAZIN-2-YL]THIAZOLE-5-CARBONITRILE DERIVATIVES AND SIMILAR COMPOUNDS AS PESTICIDES” (SYNGENTA CROP PROTECTION AG, priority 2021, published 2024).
# What was measured:
# Diabrotica balteata = test: Activity against Diabrotica balteata (corn root worm), sprayed maize sprouts; format: in vivo; conditions: for percent effect (mortality or growth inhibition) at 200 ppm: 96 h, application rate 200 ppm, L2 larvae, 4 days after infestation, read-out: effect in at least one of the two categories (mortality or growth inhibition); for mortality at 3.125 ppm: concentration 3.125 ppm
# Protocol: Maize sprouts placed onto an agar layer in 24-well microtiter plates were treated with aqueous test solutions prepared from 10′000 ppm DMSO stock solutions by spraying. After drying, the plates were infested with L2 larvae (6 to 10 per well). The samples were assessed for mortality and growth inhibition in comparison to untreated samples 4 days after infestation.
# (§1) Activity of compound P5 according to the preparatory examples and of compound P.118 from WO 21/083936 against Plutella xylostella ([…]) and Diabrotica balteata (Example B2) is summarized in Table B9.
# Plutella xylostella = test: Activity against Plutella xylostella (diamond back moth), artificial diet; format: in vivo; conditions: for percent effect (mortality or growth inhibition) at 200 ppm: 192 h, application rate 200 ppm, eggs, 8 days after infestation, read-out: effect in at least one of the two categories (mortality or growth inhibition); for mortality at 12.5 ppm: concentration 12.5 ppm
# Protocol: 24-well microtiter plates with artificial diet were treated with aqueous test solutions prepared from 10′000 ppm DMSO stock solutions by pipetting. After drying, Plutella eggs were pipetted through a plastic stencil onto a gel blotting paper and the plate was closed with it. The samples were assessed for mortality and growth inhibition in comparison to untreated samples 8 days after infestation.
# as §1
# Spodoptera littoralis = test: Activity against Spodoptera littoralis (Egyptian cotton leaf worm), sprayed cotton leaf discs; format: in vivo; conditions: foliar, 72 h, application rate 200 ppm, L1 larvae, 3 days after infestation
# Protocol: Cotton leaf discs were placed onto agar in 24-well microtiter plates and sprayed with aqueous test solutions prepared from 10′000 ppm DMSO stock solutions. After drying the leaf discs were infested with five L1 larvae. The samples were assessed for mortality, anti-feeding effect, and growth inhibition in comparison to untreated samples 3 days after infestation. Control of Spodoptera littoralis by a test sample is given when at least one of the categories mortality, anti-feedant effect, and growth inhibition is higher than the untreated sample.
# Chilo suppressalis = test: Activity against Chilo suppressalis (striped rice stemborer), artificial diet in 24-well plates; format: in vivo; conditions: 144 h, application rate 200 ppm, L2 larvae, 6 days after infestation
# Protocol: 24-well microtiter plates with artificial diet were treated with aqueous test solutions prepared from 10′000 ppm DMSO stock solutions by pipetting. After drying, the plates were infested with L2 larvae (6-8 per well). The samples were assessed for mortality, anti-feeding effect, and growth inhibition in comparison to untreated samples 6 days after infestation. Control of Chilo suppressalis by a test sample is given when at least one of the categories mortality, anti-feedant effect, and growth inhibition is higher than the untreated sample.
# Euschistus heros = test: Activity against Euschistus heros (neotropical brown stink bug), sprayed soybean leaves; format: in vivo; conditions: 120 h, application rate 200 ppm, N2 nymphs, 5 days after infestation, read-out: effect in at least one of the two categories (mortality or growth inhibition)
# Protocol: Soybean leaves on agar in 24-well microtiter plates were sprayed with aqueous test solutions prepared from 10′000 ppm DMSO stock solutions. After drying the leaves were infested with N2 nymphs. The samples were assessed for mortality and growth inhibition in comparison to untreated samples 5 days after infestation.
melting point,Structure (SMILES),percent effect (mortality or growth inhibition) at 200 ppm (Diabrotica balteata),percent effect (mortality or growth inhibition) at 200 ppm (Plutella xylostella),"percent control (mortality, anti-feedant effect or growth inhibition) at 200 ppm (Spodoptera littoralis)","percent control (mortality, anti-feedant effect or growth inhibition) at 200 ppm (Chilo suppressalis)",percent effect (mortality or growth inhibition) at 200 ppm (Euschistus heros),mortality at 3.125 ppm (Diabrotica balteata),mortality at 12.5 ppm (Plutella xylostella)
,"CC(Nc1ncnc2c(Br)cc(Br)cc12)c1nccnc1-c1ncsn1 (stereo not shown) [P16, 6,8-dibromo-N-[1-[3-(1,2,4-thiadiazol-3-yl)pyrazin-2-yl]ethyl]quinazolin-4-amine]",≥ 80%,≥ 80%,≥ 80%,,,,
,"C[C@H](Nc1nc(=O)[nH]c2c(Br)cc(C(F)(F)F)cc12)c1ncnn1-c1ncc(C#N)s1 [P2, 2-[5-[(1S)-1-[[8-bromo-2-oxo-6-(trifluoromethyl)-1H-quinazolin-4-yl]amino]ethyl]-1,2,4-triazol-1-yl]thiazole-5-carbonitrile]",,≥ 80%,≥ 80%,≥ 80%,,,
,"CC(Nc1nc(=O)[nH]c2c(Br)cc(C(F)(F)F)cc12)c1nccnc1-c1ncc(Br)s1 (stereo not shown) [P4, 8-bromo-4-[1-[3-(5-bromothiazol-2-yl)pyrazin-2-yl]ethylamino]-6-(trifluoromethyl)-1H-quinazolin-2-one]",≥ 80%,≥ 80%,,≥ 80%,,,
,"CC(Nc1ncnc2c(Br)cc(Br)cc12)c1nccnc1-c1ncc(C#N)s1 (stereo not shown) [P19, 2-[3-[1-[(6,8-dibromoquinazolin-4-yl)amino]ethyl]pyrazin-2-yl]thiazole-5-carbonitrile]",≥ 80%,≥ 80%,≥ 80%,≥ 80%,,,
,"C[C@@H](c1ncnn1-c1ncc(C#N)s1)N(C)c1ncnc2c(Cl)cc(C(F)(F)F)cc12 [P17, 2-[5-[(1S)-1-[[8-chloro-6-(trifluoromethyl)quinazolin-4-yl]-methyl-amino]ethyl]-1,2,4-triazol-1-yl]thiazole-5-carbonitrile]",≥ 80%,≥ 80%,≥ 80%,≥ 80%,≥ 80%,,
,"CC(Nc1ncnc2c(Cl)cc(C(F)(F)F)cc12)c1nccnc1-c1ncsn1 (stereo not shown) [P18, 8-chloro-N-[1-[3-(1,2,4-thiadiazol-3-yl)pyrazin-2-yl]ethyl]-6-(trifluoromethyl)quinazolin-4-amine]",≥ 80%,≥ 80%,,,,,
,"CC(Nc1ncnc2c(C(F)(F)F)cc(Cl)cc12)c1nccnc1-c1ccc(C#N)cn1 (stereo not shown) [P.118, reference compound]",,,,,,0%,0%
,"CC(Nc1ncnc2c(C(F)(F)F)cc(C(F)(F)F)cc12)c1nccnc1-c1ncc(Br)s1 (stereo not shown) [P8, N-[1-[3-(5-bromothiazol-2-yl)pyrazin-2-yl]ethyl]-6,8-bis(trifluoromethyl)quinazolin-4-amine]",≥ 80%,≥ 80%,,≥ 80%,,,
,"CC(Nc1ncnc2c(C(F)(F)F)cc(Cl)cc12)c1nccnc1-c1ncc(C#N)s1 (stereo not shown) [P5, 2-[3-[1-[[6-chloro-8-(trifluoromethyl)quinazolin-4-yl]amino]ethyl]pyrazin-2-yl]thiazole-5-carbonitrile]",≥ 80%,≥ 80%,≥ 80%,≥ 80%,,100%,50%
,"C[C@H](Nc1ncnc2c(Cl)cc(S(=O)(=O)C(F)(F)F)cc12)c1ncnn1-c1ncc(C#N)s1 [P22, 2-[5-[(1S)-1-[[8-chloro-6-(trifluoromethylsulfonyl)quinazolin-4-yl]amino]ethyl]-1,2,4-triazol-1-yl]thiazole-5-carbonitrile]",≥ 80%,≥ 80%,≥ 80%,≥ 80%,,,
,"CC(Nc1ncnc2c(C(F)(F)F)cc(Cl)cc12)c1nccnc1-c1ncsn1 (stereo not shown) [P13, 6-chloro-N-[1-[3-(1,2,4-thiadiazol-3-yl)pyrazin-2-yl]ethyl]-8-(trifluoromethyl)quinazolin-4-amine]",≥ 80%,≥ 80%,≥ 80%,,,,
197 to 199 °C,"CC(Nc1nc(Cl)nc2c(Br)cc(C(F)(F)F)cc12)c1nccnc1-c1ncc(Br)s1 (stereo not shown) [P3, 8-bromo-N-[1-[3-(5-bromothiazol-2-yl)pyrazin-2-yl]ethyl]-2-chloro-6-(trifluoromethyl)quinazolin-4-amine]",,,,,,,
,"CC(Nc1nc(=O)[nH]c2c(Br)cc(C(F)(F)F)cc12)c1nccnc1-c1ncc(C#N)s1 (stereo not shown) [P1, 2-[3-[1-[[8-bromo-2-oxo-6-(trifluoromethyl)-1H-quinazolin-4-yl]amino]ethyl]pyrazin-2-yl]thiazole-5-carbonitrile]",≥ 80%,≥ 80%,,≥ 80%,,,
,"CC(Nc1ncnc2c(C(F)(F)F)cc(Cl)cc12)c1nccnc1-c1ncc(Br)s1 (stereo not shown) [P6, N-[1-[3-(5-bromothiazol-2-yl)pyrazin-2-yl]ethyl]-6-chloro-8-(trifluoromethyl)quinazolin-4-amine]",≥ 80%,,,≥ 80%,,,
,"C[C@H](Nc1nc(Cl)nc2c(Br)cc(C(F)(F)F)cc12)c1ncnn1-c1ncc(C#N)s1 [P9, 2-[5-[(1S)-1-[[8-bromo-2-chloro-6-(trifluoromethyl)quinazolin-4-yl]amino]ethyl]-1,2,4-triazol-1-yl]thiazole-5-carbonitrile]",≥ 80%,≥ 80%,,≥ 80%,,,
,"CC(Nc1ncnc2c(C(F)(F)F)cc(C(F)(F)F)cc12)c1nccnc1-c1ncc(C#N)s1 (stereo not shown) [P7, 2-[3-[1-[[6,8-bis(trifluoromethyl)quinazolin-4-yl]amino]ethyl]pyrazin-2-yl]thiazole-5-carbonitrile]",≥ 80%,≥ 80%,≥ 80%,≥ 80%,,,
,"CC(Nc1ncnc2c(Cl)cc(C(F)(F)F)cc12)c1nccnc1-c1ncc(C#N)s1 (stereo not shown) [P12, 2-[3-[1-[[8-chloro-6-(trifluoromethyl)quinazolin-4-yl]amino]ethyl]pyrazin-2-yl]thiazole-5-carbonitrile]",≥ 80%,≥ 80%,≥ 80%,≥ 80%,,,
,"C[C@H](Nc1ncnc2c(C(F)(F)F)cc(Cl)cc12)c1ncnn1-c1ncc(C#N)s1 [P10, 2-[5-[(1S)-1-[[6-chloro-8-(trifluoromethyl)quinazolin-4-yl]amino]ethyl]-1,2,4-triazol-1-yl]thiazole-5-carbonitrile]",≥ 80%,≥ 80%,≥ 80%,≥ 80%,≥ 80%,,
,"C[C@@H](c1ncnn1-c1ncc(C#N)s1)N(C)c1ncnc2c(C(F)(F)F)cc(Cl)cc12 [P11, 2-[5-[(1S)-1-[[6-chloro-8-(trifluoromethyl)quinazolin-4-yl]-methyl-amino]ethyl]-1,2,4-triazol-1-yl]thiazole-5-carbonitrile]",≥ 80%,≥ 80%,≥ 80%,≥ 80%,,,
